Measured values as given in patent US20220117919A1, “ENHANCED BIOAVAILABILITY OF N-(2,6-BIS(1-METHYLETHYL)PHENYL)-N'-((1-(4-(DIMETHYLAMINO)-PHENYL)CYCLOPENTYL)METHYL)UREA HYDROCHLORIDE” (The Regents of the University of Michigan, priority 2015, published 2022).
Where “and” joins values, the source holds several entries; their conditions need not be identical. Equal entries are not always repeated. Structures can show the parent of a compound that is named as a salt.

Test: Food and acidic beverage effect on bioavailability of ATR-101 tablets, 3-way crossover plasma PK study
Assay type: in vivo, human
Details: single oral 500 mg; for kel: in h-1
Method: To evaluate the effects of food and of an acidic beverage on bioavailability of ATR-101 tablets prepared according to Example 2 (see Table 2), an open-label, randomized, 3-period, 3-way crossover, 3-sequence study was carried out with fourteen healthy, adult, non-tobacco using male and female (non-childbearing potential only) human subjects.
Three different treatments A, B, and C were administered as follows:
Treatment A: 500 mg ATR-101 (1×500 mg tablet) administered with water at Hour 0 on Day 1 following an overnight fast.
Treatment B: 500 mg ATR-101 (1×500 mg tablet) administered with water at Hour 0, 30 minutes after the start of a high-fat breakfast, on Day 1.
Treatment C: 500 mg ATR-101 (1×500 mg tablet) administered with Coca-Cola® Classic at Hour 0 on Day 1 following an overnight fast.
On Day 1 of Period 1, subjects were randomized to one of 3 treatment sequences: ABC, BCA, or CBA. For Treatments A and B, ATR-101 was administered orally with approximately 240 mL of water. For Treatment C, ATR-101 was administered orally with approximately 240 mL of Coca-Cola® Classic. Water (except water provided with dosing for Treatments A and B) was restricted 1 hour prior to and 1 hour after each study drug administration, but was allowed ad libitum at all other times. Other fluids were given as part of the standard meals (including the breakfast administered prior to study drug dosing for Treatment B) and/or snacks, but were restricted at all other times (except for the Coca-Cola® Classic beverage provided with dosing in Treatment C) throughout the confinement period.
For Treatments A and C, subjects fasted overnight for at least 10 hours prior to study drug administration and continued the fast for at least 4 hours post-dose.
For Treatment B, subjects were required to fast overnight for at least 10 hours until 30 minutes prior to study drug administration, when they were given breakfast which was entirely consumed within 30 minutes. A representative breakfast includes 2 slices of buttered toast, 2 fried eggs, 2 strips of bacon, 4 oz of hash brown potatoes, and 240 mL of whole milk.
On Day 1 of each period, a standard lunch and dinner was provided at approximately 4 and 9 hours post-dose, respectively, and a snack was also offered at approximately 12 hours post-dose. On other days when confined in the CRU, standard meals and/or snacks were provided at appropriate times. When confined, subjects were required to fast from all food and drink except water between meals and snacks served at the clinical research unit.
Each meal and/or snack served at the clinical research unit was standardized and was similar in caloric content and composition (except for the meal served as part of Treatment B) and was taken at approximately the same time in each period.
For all subjects, blood samples for the determination of ATR-101 plasma concentration were collected at pre-dose and 0.5, 1, 1.5, 2, 2.5, 3, 3.5, 4, 5, 6, 8, 12, 16, 24, 36, and 48 hours post-dose. PK parameters for plasma ATR-101 were calculated as follows: • AUC0-t: The area under the plasma concentration-time curve, from time 0 to the last measurable non-zero concentration, was calculated by the linear trapezoidal method. • AUC0-inf: The area under the plasma concentration-time curve from time 0 extrapolated to infinity. AUC0-inf was calculated as the sum of AUC0-t plus the ratio of the last measurable plasma concentration to the elimination rate constant. • AUC%extrap: Percent of AUC0-inf extrapolated, represented as
[formula] • Cmax: Maximum observed concentration. • tmax: Time to reach Cmax. If the maximum value occurred at more than one time point, tmax was defined as the first time point with this value. • ke1: Apparent first-order terminal elimination rate constant calculated from a semi-log plot of the plasma concentration versus time curve. […]

[1] = Treatment A (fasting with water), Maximum
[2] = Treatment A (fasting with water), Mean
[3] = Treatment A (fasting with water), Median
[4] = Treatment A (fasting with water), Minimum
[5] = Treatment A (fasting with water), individual subject, hydrochloride
[6] = Treatment B (fed with water), Maximum
[7] = Treatment B (fed with water), Mean
[8] = Treatment B (fed with water), Median
[9] = Treatment B (fed with water), Minimum
[10] = Treatment B (fed with water, high-fat breakfast), individual subject, hydrochloride
[11] = Treatment C (fasting with acidic beverage), Maximum
[12] = Treatment C (fasting with acidic beverage), Mean
[13] = Treatment C (fasting with acidic beverage), Median
[14] = Treatment C (fasting with acidic beverage), Minimum

Work on `CC(C)c1cccc(C(C)C)c1NC(=O)NCC1(c2ccc(N(C)C)cc2)CCCC1` [ATR-101, N-(2,6-bis(1-methylethyl)phenyl)-N′-((1-(4-(dimethylamino)-phenyl)cyclopentyl)methyl)urea hydrochloride] yielded an AUC0-inf [1] of 5050 ng·h/mL, an AUC0-t [1] of 4860 ng·h/mL and an AUC% extrap [1] of 12.7%. The Cmax [1] was 933 ng/mL, the t1/2 [1] was 22.7 h and the tmax [1] was 12.0 h. The kel [1] was 0.0612, the AUC% extrap [2] was 8.64% and the kel [2] was 0.0406. It also gave an AUC% extrap [3] of 9.43%, a kel [3] of 0.0380 and an AUC0-inf [4] of 2430 ng·h/mL. The AUC0-t [4] was 840 ng·h/mL, the AUC% extrap [4] was 3.72% and the Cmax [4] was 26.1 ng/mL. The t1/2 [4] was 11.3 h, the tmax [4] was 1.50 h and the kel [4] was 0.0305. For the same compound, the AUC0-inf [5] was 2740 and 4290 and 2630 and 2430 and 5050 and 2560 and 4700 and 4940 and 4370, the AUC0-t [5] was 2450 and 3180 and 3810 and 2490 and 840 and 2200 and 4860 and 2330 and 1520 and 4100 and 4400 and 3880 and the AUC% extrap [5] was 10.6% and 6.68% and 11.2% (2×) and 5.32% and 9.43% and 3.72% and 8.82% and 12.7% and 4.61% and 10.8%. The Cmax [5] was 509 ng/mL and 620 ng/mL and 807 ng/mL and 26.1 ng/mL and 612 ng/mL and 539 ng/mL and 306 ng/mL and 526 ng/mL and 486 ng/mL and 933 ng/mL and 842 ng/mL, the tmax [5] was 2.5 h and 1.50 h and 12.0 h and 1.5 h and 3.00 h and the kel [5] was 0.0378 and 0.0414 and 0.0347 and 0.0456 and 0.0380 and 0.0612 and 0.0404 and 0.0317 and 0.0531 and 0.0305 and 0.0318. It also gave an AUC0-inf [6] of 14000 ng·h/mL, an AUC0-t [6] of 13200 ng·h/mL and an AUC% extrap [6] of 17.9%. It also gave a Cmax [6] of 2060 ng/mL, a t1/2 [6] of 30.7 h and a tmax [6] of 5.00 h. It also gave a kel [6] of 0.0603, an AUC% extrap [7] of 8.00% and a kel [7] of 0.0364. The AUC% extrap [8] was 7.27%, the kel [8] was 0.0366 and the AUC0-inf [9] was 3790 ng·h/mL. For the same compound, the AUC0-t [9] was 3520 ng·h/mL, the AUC% extrap [9] was 2.07% and the Cmax [9] was 719 ng/mL. It also gave a t1/2 [9] of 11.5 h, a tmax [9] of 1.50 h and a kel [9] of 0.0226. The AUC0-inf [10] was 3790 and 6400 and 14000 and 5390 and 4540 and 7640 and 9000 and 7660 and 7670 and 5830 and 5820 and 4900 and 9990 and 7210, the AUC0-t [10] was 3520 and 5930 and 13200 and 5280 and 4120 and 6890 and 8430 and 6810 and 6290 and 5420 and 5310 and 4740 and 9300 and 6570 and the AUC% extrap [10] was 7.07% and 7.35% and 5.87% and 2.07% and 9.33% and 9.87% and 6.38% and 1.1% and 17.9% and 7.19% and 8.76% and 3.35% and 6.89% and 8.80%. The Cmax [10] was 1040 ng/mL and 1620 ng/mL and 2060 ng/mL and 1120 ng/mL and 848 ng/mL and 1340 ng/mL and 2000 ng/mL and 1210 ng/mL and 931 ng/mL and 719 ng/mL and 759 ng/mL and 1690 ng/mL and 993 ng/mL, the t1/2 [10] was 19.3 h and 20.9 h and 16.9 h and 11.5 h and 25.1 h and 27.8 h and 18.0 h and 24.9 h and 30.7 h and 17.4 h and 23.9 h and 13.2 h and 17.7 h and 18.6 h and the tmax [10] was 1.50 h and 2.50 h and 3.00 h and 5.00 h and 4.01 h and 3.57 h. The kel [10] was 0.0359 and 0.0332 and 0.0410 and 0.0603 and 0.0276 and 0.0249 and 0.0385 and 0.0278 and 0.0226 and 0.0398 and 0.0290 and 0.0526 and 0.0392 and 0.0374, the AUC0-inf [11] was 6970 ng·h/mL and the AUC0-t [11] was 6430 ng·h/mL. It also gave an AUC% extrap [11] of 21.5%, a Cmax [11] of 1550 ng/mL and a t1/2 [11] of 27.9 h. For the same compound, the tmax [11] was 6.00 h, the kel [11] was 0.0501 and the AUC% extrap [12] was 10.6%. For the same compound, the kel [12] was 0.0377, the AUC% extrap [13] was 8.95% and the kel [13] was 0.0376. It also gave an AUC0-inf [14] of 728 ng·h/mL, an AUC0-t [14] of 572 ng·h/mL and an AUC% extrap [14] of 3.84%. It also gave a Cmax [14] of 19.8 ng/mL and a t1/2 [14] of 13.8 h.
